Results taken from patent publication US20250333733A1, “NOVEL TARGETS AGAINST OVARIAN CANCER” (UNIVERSITY OF PUERTO RICO, priority 2022, published 2025).

Key:
OVCAR3CIS cells [1] = experiment: RNA-seq after siRNA-mediated CASC10 knockdown; type: cell-based
Experimental: The RNA sequencing library was prepared by first extracting, total RNA using the GenElute Mammalian Total RNA Miniprep Kit (Sigma). RNA sample integrity was evaluated and RNAs with a RIN >7 were used.
RNA fragmentation was carried out for 10 minutes, followed by first-and second-strand cDNA synthesis and adenylation using the TruSeq Stranded Total RNA with Illumina Ribo-Zero Plus rRNA Depletion (Illumina, San Diego, CA). The PCR products were run on a flow cell running a 50 base paired-end (2X50) recipe. The differential expression analysis was carried out using the DESeq2 (version 1.28.1) package (R version 4.0.1). As the count data was obtained in two batches, a batch correction term was introduced in the DESeq2 model using ComBat Seq to have better statistical power and control of false positives. The Ensembl IDs were converted to gene symbols and names using the org.Hs.eg.db package (version 3.11.4). […]

Caspase-3 [2] = experiment: Caspase-3 fluorometric activity in SKOV3ip1CIS cells; type: cell-based, human; conditions: 72 hours after transfection, vs NC-siRNA
Experimental: (§1) Caspase-3 activity was quantified using the Caspase-3/CPP32 Fluorometric Assay Kit (BioVision CA, USA) as per the manufacturer's instructions. OVCAR3CIS (3.0×10^4 cells/mL) or SKOV3ip1CIS (3.5×10^4 cells/mL) were seeded into 10 cm Petri dishes and transfected with NC-siRNA or CASC10-siRNA (2). Twenty-four hours later, the media was replaced by regular media, and seventy-two hours after transfection, cells were collected, pellets lysed, and total protein concentration determined. Equal amounts of protein were mixed with 2×Reaction Buffer and 1 mM DEVD-AFC substrate in a 96-well plate and incubated at 37° C. for 2.5 hours. Fluorescence intensity at 400 nm excitation and 505 nm emission was measured.

OVCAR3CIS cells [3] = experiment: Cell viability, Alamar blue, siRNA alone or with cisplatin; type: cell-based; conditions: OVCAR3CIS, vs NC-siRNA
Experimental: OVCAR3CIS cells (3.0×10^4 cells/mL) or SKOV3ip1CIS (3.0×10^4 cells/mL) were seeded into 12-well plates. […] The next day, 400 cells (OVCAR3CIS) or 1,000 cells (SKOV3ip1CIS) were seeded into 6-well plates and incubated for seven days, fixed and stained with 0.5% crystal violet in methanol. Colonies of at least 50 cells were counted using a light microscope (CKX41: Olympus, Center Valley, PA, USA) with a total magnification of 40x. For cell viability assays, OVCAR3 and OVCAR3CIS (3.0×10^4 cells/mL) or SKOV3ip1and SKOV3ip1CIS (3.5×10^4 cells/mL) were seeded into 96-well plates, and 24 hours later, siRNA transfection was performed as described above. The next day, the transfection mix was replaced with cisplatin (CIS) (2.5 uM final concentration dissolved in regular cell culture media) and after forty-eight hours, the medium was removed, and Alamar blue dye (Invitrogen, Thermo Fisher Scientific, Eugene, OR, USA) was added following the manufacturer's instructions. Optical density (OD) was measured, and percentages of cell viability were calculated after blank OD subtraction. Untreated cells were assessed as 100% cell viability.

OVCAR3CIS cells [4] = experiment: Colony formation assay after siRNA transfection; type: cell-based; conditions: single siRNA, vs NC-siRNA
Experimental: (§2) SiRNA ON-TARGET plus SMARTpool (a mixture of 4 siRNA as a single tube) and a negative control siRNA (NC-siRNA) (Sigma-Aldrich) were used for transfection studies. CASC10, was targeted by using two siRNAs targeting different regions of the CASC10 RNA (e.g., CASC10-siRNA (1) and CASC10-siRNA (2)). OVCAR3CIS or SKOV3ip1CIS cells were seeded into 12-well plates at 3.0×10^4 cells/mL. The next day, siRNAs were mixed with HiPerfect transfection reagent (Qiagen, Valencia, CA) at a 1:2 ratio (SIRNA: HiPerfect) in serum and antibiotic-free Opti-MEM medium (Gibco) and added to the cells. After twenty-four hours the media was replaced by regular culture media, and cells were cultured and used for further experiments. To assess siRNA transfection efficiency, cells were collected 24 hours after siRNA transfection.
OVCAR3CIS cells (3.0×10^4 cells/mL) or SKOV3ip1CIS (3.0×10^4 cells/mL) were seeded into 12-well plates. Twenty-four hours later, cells were transfected with 100 nM (final concentration) of each siRNA. […] Colonies of at least 50 cells were counted using a light microscope (CKX41: Olympus, Center Valley, PA, USA) with a total magnification of 40x. […] Optical density (OD) was measured, and percentages of cell viability were calculated after blank OD subtraction. Untreated cells were assessed as 100% cell viability. […]

Caspase-3 [5] = experiment: Caspase-3 fluorometric activity in OVCAR3CIS cells; type: cell-based; conditions: 72 hours after transfection, vs NC-siRNA
Experimental: as §1

SKOV3ip1CIS cells = experiment: Colony formation assay after siRNA transfection; type: cell-based, human; conditions: SKOV3ip1CIS (FIG. 8B)
Experimental: as §2
OVCAR3CIS cells (3.0×10^4 cells/mL) or SKOV3ip1CIS (3.0×10^4 cells/mL) were seeded into 12-well plates. Twenty-four hours later, cells were transfected with 100 nM (final concentration) of each siRNA. […] Colonies of at least 50 cells were counted using a light microscope (CKX41: Olympus, Center Valley, PA, USA) with a total magnification of 40x. […] Optical density (OD) was measured, and percentages of cell viability were calculated after blank OD subtraction. Untreated cells were assessed as 100% cell viability.

## CASC10-siRNA (2): siRNA targeting CASC10 RNA, SEQ ID NO 3 and 4: 5′ GACUCUUGGAUCCAAGUUU(dT)(dT) 3′ / 5′ AAACUUGGAUCCAAGAGUC(dT)(dT) 3′ (chain 1 GACUCUUGGAUCCAAGUUUNN; chain 2 AAACUUGGAUCCAAGAGUCNN; 3' dTdT overhangs, chemistry not fully specified)
OVCAR3CIS cells [1]; log2 fold change >1.2 or <−1.2, p-value ≤0.01, vs NC-siRNA
  differentially expressed genes: 32
OVCAR3CIS cells [1]; padj <0.01
  differentially abundant transcripts exclusive of CASC10-siRNA (2) compared with NC-siRNA: 1,400
Caspase-3 [2]
  increase in caspase-3 activity: 4 fold
OVCAR3CIS cells [3]; 50 nM siRNA
  reduction of cell viability: 15%
OVCAR3CIS cells [3]; 100 nM siRNA
  reduction of cell viability: 30%
OVCAR3CIS cells [3]; siRNA combined with CIS 2.5 μM
  cell viability (reduced to): 56%
OVCAR3CIS cells [4]
  reduction in the number of colonies: 54%
Caspase-3 [5]
  increase in caspase-3 activity: 5 fold
SKOV3ip1CIS cells
  reduction in the number of colonies: 86%
